A value given as a limit tells only on which side of the number the result lay.

This is an account of results in patent US20240158370A1, “CK1 alpha AND DUAL CK1 alpha / GSPT1 DEGRADING COMPOUNDS” (Innovo Therapeutics, Inc., priority 2022, published 2024).

Test [1] concerns the target GSPT1 (Homo sapiens, UniProt P15170+Q96SW2). Description: HiBiT degradation assay, GSPT1, Procedure A. The format is cell-based. Also noted: HiBit-GSPT1 KI HEK293(LgBit) Cells; host or cells: HEK293(LgBit) knock-in cells. As to conditions: six hours. The essentials:
(§1)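 Cells in DMEM+10% FBS at 1×10^6 cells/ml were added to pre-spotted compound (10-point dose response, 10 μM to 0.005 μM, 0.1% DMSO) and incubated 6 h at 37° C. Nano-Glo HiBiT lytic reagent was added and luminescence read. DC50 and Ymin came from 4-parameter curve fits.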

The target of test [2] is T1, CK1α (Homo sapiens, UniProt P48729+Q96SW2).
T1 construct: CSNK1A1-HiBit KI HEK293(LgBit) Cells; host or cells: HEK293(LgBit) knock-in cells
T1 sequence (P48729 whole entry): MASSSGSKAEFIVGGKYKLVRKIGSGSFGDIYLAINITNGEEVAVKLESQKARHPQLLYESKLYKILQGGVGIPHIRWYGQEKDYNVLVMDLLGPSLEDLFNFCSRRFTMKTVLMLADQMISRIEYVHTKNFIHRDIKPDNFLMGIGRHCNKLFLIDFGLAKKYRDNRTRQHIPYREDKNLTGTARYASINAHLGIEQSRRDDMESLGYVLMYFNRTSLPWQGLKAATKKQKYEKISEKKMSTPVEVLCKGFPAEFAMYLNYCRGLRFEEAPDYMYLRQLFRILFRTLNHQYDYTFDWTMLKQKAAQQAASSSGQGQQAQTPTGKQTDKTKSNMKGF
T1 sequence (Q96SW2 whole entry): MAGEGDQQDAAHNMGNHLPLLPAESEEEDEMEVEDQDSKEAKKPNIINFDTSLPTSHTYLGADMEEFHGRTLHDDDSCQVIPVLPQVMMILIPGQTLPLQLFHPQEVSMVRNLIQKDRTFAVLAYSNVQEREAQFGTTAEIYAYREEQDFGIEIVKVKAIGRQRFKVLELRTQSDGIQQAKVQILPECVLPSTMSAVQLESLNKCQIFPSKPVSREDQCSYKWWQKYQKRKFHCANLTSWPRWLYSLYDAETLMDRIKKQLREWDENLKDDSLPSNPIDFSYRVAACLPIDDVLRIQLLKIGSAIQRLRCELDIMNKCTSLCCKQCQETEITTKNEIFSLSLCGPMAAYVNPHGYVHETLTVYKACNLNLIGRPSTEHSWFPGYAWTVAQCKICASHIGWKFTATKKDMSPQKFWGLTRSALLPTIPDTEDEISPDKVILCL
T1 sequence (Q16531 whole entry partner): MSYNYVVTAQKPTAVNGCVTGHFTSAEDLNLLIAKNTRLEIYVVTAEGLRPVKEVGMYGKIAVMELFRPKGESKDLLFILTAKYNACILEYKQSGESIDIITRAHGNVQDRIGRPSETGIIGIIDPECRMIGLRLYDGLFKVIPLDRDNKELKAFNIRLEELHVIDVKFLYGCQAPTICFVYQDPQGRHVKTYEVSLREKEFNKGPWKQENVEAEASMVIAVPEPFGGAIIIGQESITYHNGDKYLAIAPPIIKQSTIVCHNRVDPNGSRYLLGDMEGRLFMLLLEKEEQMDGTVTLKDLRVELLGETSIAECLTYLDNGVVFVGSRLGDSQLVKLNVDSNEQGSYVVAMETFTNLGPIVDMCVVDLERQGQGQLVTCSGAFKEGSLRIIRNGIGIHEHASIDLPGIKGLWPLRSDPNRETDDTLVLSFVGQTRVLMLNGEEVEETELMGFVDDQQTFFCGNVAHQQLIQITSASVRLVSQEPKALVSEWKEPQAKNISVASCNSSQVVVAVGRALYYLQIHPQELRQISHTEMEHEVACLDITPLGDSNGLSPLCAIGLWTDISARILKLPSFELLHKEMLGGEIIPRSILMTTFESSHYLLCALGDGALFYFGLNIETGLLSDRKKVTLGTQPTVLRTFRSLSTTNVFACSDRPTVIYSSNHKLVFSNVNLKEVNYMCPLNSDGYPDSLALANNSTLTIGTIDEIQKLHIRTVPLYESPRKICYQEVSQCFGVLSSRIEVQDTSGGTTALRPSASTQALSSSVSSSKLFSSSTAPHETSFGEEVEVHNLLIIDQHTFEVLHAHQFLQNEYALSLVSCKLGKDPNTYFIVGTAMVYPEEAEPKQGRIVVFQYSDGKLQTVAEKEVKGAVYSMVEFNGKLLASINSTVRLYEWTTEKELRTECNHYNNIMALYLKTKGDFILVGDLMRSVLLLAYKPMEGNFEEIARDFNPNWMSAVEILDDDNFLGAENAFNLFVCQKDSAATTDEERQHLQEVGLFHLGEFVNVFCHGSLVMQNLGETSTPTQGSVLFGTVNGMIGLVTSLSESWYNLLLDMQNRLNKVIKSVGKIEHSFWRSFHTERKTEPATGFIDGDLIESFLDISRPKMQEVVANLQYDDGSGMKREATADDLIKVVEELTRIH
Description: HiBiT degradation assay, CK1α, Procedure A. As to conditions: six hours. The format is cell-based. The essentials:
as §1

Chain of GSPT1 (P15170 whole entry): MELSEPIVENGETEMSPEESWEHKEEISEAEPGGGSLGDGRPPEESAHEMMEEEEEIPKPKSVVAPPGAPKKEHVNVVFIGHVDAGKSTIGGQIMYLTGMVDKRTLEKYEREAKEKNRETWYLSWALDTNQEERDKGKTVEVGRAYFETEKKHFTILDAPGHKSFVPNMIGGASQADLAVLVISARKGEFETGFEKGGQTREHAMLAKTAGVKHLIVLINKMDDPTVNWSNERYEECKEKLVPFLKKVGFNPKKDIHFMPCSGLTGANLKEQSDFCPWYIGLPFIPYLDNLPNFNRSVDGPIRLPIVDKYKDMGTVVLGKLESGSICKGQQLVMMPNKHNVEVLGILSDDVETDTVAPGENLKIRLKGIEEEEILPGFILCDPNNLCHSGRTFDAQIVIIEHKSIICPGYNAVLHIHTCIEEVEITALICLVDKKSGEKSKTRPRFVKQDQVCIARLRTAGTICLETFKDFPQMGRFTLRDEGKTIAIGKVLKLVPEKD
Chain of GSPT1 (Q96SW2 whole entry): as the sequence (Q96SW2 whole entry) above
Chain of GSPT1 (Q16531 whole entry partner): as the sequence (Q16531 whole entry partner) above

Regarding `Cn1cnc(-c2ccc3c(c2)CN(C2CCC(=O)NC2=O)C3=O)c1-c1cnn(C2CCCCC2)c1` (stereo not drawn) [Example 517], in test [1], the DC50 was under 25 nM and the “GSPT1 Ymin” value is recorded as “F (F = >75-100% remaining)”. In test [2], the “CK1α Ymin” value was “E (E = >25-75% remaining)” and the DC50 is at least 25 nM.

Regarding `Cn1cnc(-c2ccc3c(c2)CN(C2CCC(=O)NC2=O)C3=O)c1-c1cncnc1` (stereo not drawn) [Example 520], in test [1], the half-maximal degradation concentration (DC50) was at least 25 nM and the “GSPT1 Ymin” value is “F (F = >75-100% remaining)”. Also, in test [2], the “CK1α Ymin” value is recorded as “E (E = >25-75% remaining)” and the DC50 is at least 25 nM.

On to `Cn1ccc(-c2c(-c3ccc4c(c3)CN(C3CCC(=O)NC3=O)C4=O)ncn2C)c1` (stereo not drawn) [Example 521], for which, in test [1], the DC50 is under 25 nM and the “GSPT1 Ymin” value was “E (E = >25-75% remaining)”. Besides, in test [2], the “CK1α Ymin” value is listed as “C (C = 0-10% remaining)” and the DC50 was under 25 nM.

In the case of `Cn1cnc(-c2ccc3c(c2)CN(C2CCC(=O)NC2=O)C3=O)c1-c1ccc(N)nc1` (stereo not drawn) [Example 522], in test [1], the DC50 is at least 25 nM and the “GSPT1 Ymin” value was “E (E = >25-75% remaining)”. In addition, in test [2], the “CK1α Ymin” value was “D (D = >10- 25% remaining)” and the DC50 is at least 25 nM.

As for `Cn1cnc(-c2ccc3c(c2)CN(C2CCC(=O)NC2=O)C3=O)c1-c1cncc(N)c1` (stereo not drawn) [Example 523], in test [1], the DC50 is at least 25 nM and the “GSPT1 Ymin” value was “E (E = >25-75% remaining)”. In test [2], the “CK1α Ymin” value is on record as “D (D = >10- 25% remaining)” and the DC50 was at least 25 nM.

As for `COc1ccncc1-c1c(-c2ccc3c(c2)CN(C2CCC(=O)NC2=O)C3=O)ncn1C` (stereo not drawn) [Example 524], in test [1], the DC50 is at least 25 nM and the “GSPT1 Ymin” value was “F (F = >75-100% remaining)”. In test [2], the “CK1α Ymin” value was “E (E = >25-75% remaining)” and the DC50 was at least 25 nM.

Take `Cn1cnc(-c2ccc3c(c2)CN(C2CCC(=O)NC2=O)C3=O)c1-c1ccc2cc[nH]c2c1` (stereo not drawn) [Example 525]: in test [1], the 50% degradation concentration (DC50) is under 25 nM and the “GSPT1 Ymin” value is “C (C = 0-10% remaining)”. In addition, in test [2], the “CK1α Ymin” value was “C (C = 0-10% remaining)” and the DC50 is under 25 nM.

As to `Cn1cnc(-c2ccc3c(c2)CN(C2CCC(=O)NC2=O)C3=O)c1-c1cccc2cc[nH]c12` (stereo not drawn) [Example 526], in test [1], the 50% degradation concentration (DC50) is under 25 nM and the “GSPT1 Ymin” value was “F (F = >75-100% remaining)”. Besides, in test [2], the “CK1α Ymin” value is on record as “E (E = >25-75% remaining)” and the DC50 was under 25 nM.

On to `Cn1cnc(-c2ccc3c(c2)CN(C2CCC(=O)NC2=O)C3=O)c1-c1cc2ccccc2[nH]1` (stereo not drawn) [Example 527], for which, in test [1], the DC50 was under 25 nM and the “GSPT1 Ymin” value was “E (E = >25-75% remaining)”. Besides, in test [2], the “CK1α Ymin” value is “D (D = >10- 25% remaining)” and the DC50 was under 25 nM.

Turning to `Cn1cnc(-c2ccc3c(c2)CN(C2CCC(=O)NC2=O)C3=O)c1-c1ccc2nccn2c1` (stereo not drawn) [Example 528], in test [1], the 50% degradation concentration (DC50) was at least 25 nM and the “GSPT1 Ymin” value was “E (E = >25-75% remaining)”. In addition, in test [2], the “CK1α Ymin” value was “D (D = >10- 25% remaining)” and the DC50 is at least 25 nM.

As for `Cn1cnc(-c2ccc3c(c2)CN(C2CCC(=O)NC2=O)C3=O)c1-c1ccc2ccn(C)c2c1` (stereo not drawn) [Example 529], in test [1], the DC50 is under 25 nM and the “GSPT1 Ymin” value is reported as “F (F = >75-100% remaining)”. Moreover, in test [2], the “CK1α Ymin” value is recorded as “D (D = >10- 25% remaining)” and the DC50 was under 25 nM.

On to `Cn1cnc(-c2ccc3c(c2)CN(C2CCC(=O)NC2=O)C3=O)c1-c1ccn(-c2ccc(F)cc2)n1` (stereo not drawn) [Example 530], for which, in test [1], the DC50 was under 25 nM and the “GSPT1 Ymin” value was “F (F = >75-100% remaining)”. In test [2], the “CK1α Ymin” value was “E (E = >25-75% remaining)” and the DC50 was under 25 nM.

On to `Cn1cnc(-c2ccc3c(c2)CN(C2CCC(=O)NC2=O)C3=O)c1-c1cn[nH]c1` (stereo not drawn) [Example 531], for which, in test [1], the DC50 is at least 25 nM and the “GSPT1 Ymin” value is “E (E = >25-75% remaining)”. Besides, in test [2], the “CK1α Ymin” value is “C (C = 0-10% remaining)” and the DC50 is at least 25 nM.

With `Cn1cc(-c2ccc3c(c2)CN(C2CCC(=O)NC2=O)C3=O)nc1C1CCOCC1` (stereo not drawn) [Example 532, 3-(5-(1-methyl-2-(tetrahydro-2H-pyran-4-yl)-1H-imidazol-4-yl)-1-oxoisoindolin-2-yl)piperidine-2,6-dione], in test [1], the DC50 is at least 25 nM and the “GSPT1 Ymin” value is reported as “F (F = >75-100% remaining)”. In test [2], the “CK1α Ymin” value is recorded as “D (D = >10- 25% remaining)” and the DC50 is under 25 nM.

For the compound `Cn1nc(-c2ccc3c(c2)CN(C2CCC(=O)NC2=O)C3=O)cc1-c1cncnc1` (stereo not drawn) [Example 533], in test [1], the DC50 was at least 25 nM and the “GSPT1 Ymin” value is “F (F = >75-100% remaining)”. In test [2], the “CK1α Ymin” value was “E (E = >25-75% remaining)” and the DC50 was at least 25 nM.

In the case of `Cn1cc(-c2ccc3c(c2)CN(C2CCC(=O)NC2=O)C3=O)nc1C1CCC2(CC1)CC2` (stereo not drawn) [Example 534, 3-(5-(1-Methyl-2-(spiro[2.5]octan-6-yl)-1H-imidazol-4-yl)-1-oxoisoindolin-2-yl)piperidine-2,6-dione], in test [1], the DC50 is at least 25 nM and the “GSPT1 Ymin” value is “F (F = >75-100% remaining)”. In addition, in test [2], the “CK1α Ymin” value was “D (D = >10- 25% remaining)” and the DC50 was under 25 nM.

Take `Cn1c(C2CCOCC2)nc(-c2ccc3c(c2)CN(C2CCC(=O)NC2=O)C3=O)c1-c1cncnc1` (stereo not drawn) [Example 535, 3-(5-(1-methyl-5-(pyrimidin-5-yl)-2-(tetrahydro-2H-pyran-4-yl)-1H-imidazol-4-yl)-1-oxoisoindolin-2-yl)piperidine-2,6-dione]: in test [1], the DC50 was at least 25 nM and the “GSPT1 Ymin” value is on record as “F (F = >75-100% remaining)”. Also, in test [2], the “CK1α Ymin” value was “D (D = >10- 25% remaining)” and the DC50 was at least 25 nM.

In the case of `O=C1CCC(N2Cc3cc(-c4cn(C(F)F)nc4-c4cncnc4)ccc3C2=O)C(=O)N1` (stereo not drawn) [Example 536, 3-(5-(1-(difluoromethyl)-3-(pyrimidin-5-yl)-1H-pyrazol-4-yl)-1-oxoisoindolin-2-yl)piperidine-2,6-dione], in test [1], the DC50 was at least 25 nM and the “GSPT1 Ymin” value is on record as “F (F = >75-100% remaining)”. Also, in test [2], the “CK1α Ymin” value was “F (F = >75-100% remaining)” and the DC50 was at least 25 nM.

In the case of `Cn1c(-c2ccc3c(c2)CN(C2CCC(=O)NC2=O)C3=O)cnc1N1CCCCC1` (stereo not drawn) [Example 537, 3-(5-(1-methyl-2-(piperidin-1-yl)-1H-imidazol-5-yl)-1-oxoisoindolin-2-yl)piperidine-2,6-dione], in test [1], the DC50 was at least 25 nM and the “GSPT1 Ymin” value is recorded as “F (F = >75-100% remaining)”. Further, in test [2], the “CK1α Ymin” value was “D (D = >10- 25% remaining)” and the DC50 was under 25 nM.

In test [1], `Cn1nc(-c2ccc3c(c2)CN(C2CCC(=O)NC2=O)C3=O)cc1C1CCOCC1` (stereo not drawn) [Example 538, 3-(5-(1-methyl-5-(tetrahydro-2H-pyran-4-yl)-1H-pyrazol-3-yl)-1-oxoisoindolin-2-yl)piperidine-2,6-dione] had a DC50 of at least 25 nM. Also, in test [2], the “CK1α Ymin” value is “D (D = >10- 25% remaining)” and the half-maximal degradation concentration (DC50) is under 25 nM.

In the case of `Cn1cc(-c2ccc3c(c2)CN(C2CCC(=O)NC2=O)C3=O)nc1C1CCC(C)(C)CC1` (stereo not drawn) [Example 539, 3-(5-(2-(4,4-dimethylcyclohexyl)-1-methyl-1H-imidazol-4-yl)-1-oxoisoindolin-2-yl)piperidine-2,6-dione], in test [1], the DC50 was at least 25 nM and the “GSPT1 Ymin” value was “F (F = >75-100% remaining)”. In test [2], the “CK1α Ymin” value was “E (E = >25-75% remaining)” and the DC50 was under 25 nM.

Take `Cn1c(C(F)F)nc(-c2ccc3c(c2)CN(C2CCC(=O)NC2=O)C3=O)c1-c1cncnc1` (stereo not drawn) [Example 540, 3-(5-(2-(difluoromethyl)-1-methyl-5-(pyrimidin-5-yl)-1H-imidazol-4-yl)-1-oxoisoindolin-2-yl)piperidine-2,6-dione]: in test [1], the DC50 was at least 25 nM and the “GSPT1 Ymin” value is “F (F = >75-100% remaining)”. In addition, in test [2], the “CK1α Ymin” value is “C (C = 0-10% remaining)” and the DC50 was under 25 nM.

With `Cn1ncc(-c2ccc3c(c2)CN(C2CCC(=O)NC2=O)C3=O)c1-c1ccc(C(C)(F)F)cc1` (stereo not drawn) [Example 541, 3-(5-(5-(4-(1,1-difluoroethyl)phenyl)-1-methyl-1H-pyrazol-4-yl)-1-oxoisoindolin-2-yl)piperidine-2,6-dione], in test [1], the DC50 is under 25 nM and the “GSPT1 Ymin” value is on record as “F (F = >75-100% remaining)”. In test [2], the “CK1α Ymin” value is listed as “D (D = >10- 25% remaining)” and the DC50 is under 25 nM.

As to `Cn1ncc(-c2ccc3c(c2)CN(C2CCC(=O)NC2=O)C3=O)c1-c1ccc2c(c1)OC(F)(F)O2` (stereo not drawn) [Example 542, 3-(5-(5-(2,2-difluorobenzo[d][1,3]dioxol-5-yl)-1-methyl-1H-pyrazol-4-yl)-1-oxoisoindolin-2-yl)piperidine-2,6-dione], in test [1], the DC50 was under 25 nM and the “GSPT1 Ymin” value is reported as “F (F = >75-100% remaining)”. Further, in test [2], the “CK1α Ymin” value is “C (C = 0-10% remaining)” and the DC50 is under 25 nM.

As to `CC(C)c1nc(-c2ccc3c(c2)CN(C2CCC(=O)NC2=O)C3=O)c(-c2cncnc2)n1C` (stereo not drawn) [Example 543, 3-[5-(2-isopropyl-1-methyl-5-pyrimidin-5-yl-imidazol-4-yl)-1-oxo-isoindolin-2-yl]piperidine-2,6-dione], in test [1], the DC50 was at least 25 nM and the “GSPT1 Ymin” value is “F (F = >75-100% remaining)”. In test [2], the “CK1α Ymin” value was “C (C = 0-10% remaining)” and the DC50 is under 25 nM.
